# From US20130337564A1, “Treatment of Pluripotent Cells” (Janssen Biotech, Inc., priority 2012, published 2013)
# Legend:
# [1] = system: human embryonic stem cell line H9; experiment: Dose titration secondary assay: cell number, H9; format: cell-based
# Protocol: (§1) It was important to confirm the activity of hits identified from primary screening and further analyze the range of activity by dose titration. New samples of a selective subset of primary screening hits were obtained as dry powders, solubilized to make fresh stock reagents, and diluted into secondary confirmation assays to evaluate effects on human embryonic stem cells.
# (§2) Culture of two human embryonic stem cells (H1 and H9) was conducted as described in Example 1. Colonies of cells were maintained in an undifferentiated, pluripotent state on Matrigel™ ([…]) coated polystyrene plastic, using a 1:30 dilution of Matrigel™ in DMEM:F12 to coat the surface. Cells were split by enzymatic passage every four days on average. Passage was performed by exposing cell monolayers to a solution of collagenase (1 mg/ml; Sigma-Aldrich) for 10 to 60 minutes at 37° C. followed by gentle scraping with a pipette tip to recover cell clusters. Clusters were allowed to sediment by gravity, then washed to remove residual collagenase. Cell clusters were split at a 1:3 ratio for maintenance culture or a 1:1 ratio for subsequent assay. The human embryonic stem cell lines were maintained at less than passage 50 and routinely evaluated for normal karyotypic phenotype and absence of mycoplasma contamination.
# (§3) Cell clusters of the H1 or H9 human embryonic stem cell lines used in the assay were evenly resuspended in culture medium and plated onto Matrigel™-coated 96-well Packard VIEWPLATES (PerkinElmer) in volumes of 100 μl/well. MEF conditioned medium supplemented with 8 ng/ml bFGF was used for initial plating and expansion. Daily feeding was conducted by aspirating spent culture medium from each well and replacing with an equal volume of fresh medium. Cultures were allowed to expand one to three days after plating prior to initiating assay. Plates were maintained at 37° C., 5% CO2 in a humidified box for the duration of assay.
# (§4) A subset of hits resulting from primary screening was used for follow-up study and subsequent secondary assays. Twenty compounds available as dry powders were solubilized as 10 mM stocks in DMSO and stored dessicated at […] until use Immediately prior to assay, compound stocks were diluted 1:1000 to make 10 μM test compound in DMEM:F12 base medium (Invitrogen) supplemented with 0.5% FCS (HyClone) and 100 ng/ml Activin A (R&D Biosystems). This was further diluted two-fold in series to make a seven point dilution curve for each compound, also in DMEM:F12 base medium with 0.5% FCS and 100 ng/ml Activin A.
# (§5) Assay was initiated by aspirating culture medium from cell monolayers in each well followed by three washes in PBS to remove residual growth factors and serum. Test volumes of 100 μl per well were added back containing medium with 0.5% FCS and different concentrations of inhibitor compounds with 100 ng/ml Activin A, without Wnt3a. Positive control wells contained the same base medium with 0.5% FCS and with 20 ng/ml Wnt3a (R&D Biosystems) in the absence of test compound. Negative control wells contained the same base medium with 0.5% FCS, in the absence of Activin A, Wnt3a, or test compound. Assay wells were aspirated and fed again with identical concentrations of test compound or control solutions on day 2 of assay. On days 3 and 4, all assay wells were aspirated and fed with DMEM:F12 supplemented with 2% FCS and 100 ng/ml Activin A in the absence of both test compound or Wnt3a. Parallel negative control wells were maintained on days 3 and 4 in DMEM:F12 base medium with 2% FCS.
# (§6) At the end of culture, cells in 96-well plates were washed twice with PBS then fixed with 4% paraformaldehyde at room temperature for 20 minutes, washed three times more with PBS, and then permeabilized with 0.5% Triton X-100 for 20 minutes at room temperature. After fixing and permeabilizing, cells were washed again three times with PBS and then blocked with 4% chicken serum (Invitrogen) in PBS for 30 minutes at room temperature. […]
# [2] = system: human embryonic stem cell line H1; experiment: Dose titration secondary assay: cell number, H1; format: cell-based; conditions: positive control (Wnt3a/Activin A) normalized to 1.000
# Protocol: as §1, §2, §3, §4, §5, §6
smiles,measurement,setting,value
"O=C1NC(=O)C2=C1c1cn(c3ccccc13)CCOCCOCCN(Cc1cccc3ccccc13)CCn1cc2c2ccccc21 [Compound 136, 14-(Naphthalen-1-ylmethyl)-6,7,9,10,13,14,15,16-octahydro-12H,23H-5,26:17,22-di(metheno)dibenzo[k,q]pyrrolo[3,4-n][1,4,7,10,19]dioxatriazacyclohenicosine-23,25(24H)-dione]",Cell number,[1]; 0.156 μM compound,0.147
same,Cell number,[1]; 0.313 μM compound,0.192
same,Cell number,[1]; 0.625 μM compound,0.267
same,Cell number,[1]; 1.25 μM compound,0.334
same,Cell number,[1]; 2.5 μM compound,0.388
same,Cell number,[1]; 5 μM compound,0.320
same,Cell number,[1]; 10 μM compound,0.208
same,Cell number,[2]; Conc 0.156 μM,0.742
same,Cell number,[2]; Conc 0.313 μM,0.868
same,Cell number,[2]; Conc 0.625 μM,0.910
same,Cell number,[2]; Conc 1.25 μM,0.850
same,Cell number,[2]; Conc 2.5 μM,0.428
same,Cell number,[2]; Conc 5 μM,0.173
same,Cell number,[2]; Conc 10 μM,0.058
